The subject of the assay is 521955-158-R2-J5-PDC complex spheroid growth, % test/control. The assay is described as follows: Anticancer human tumor 521955-158-R2-J5-PDC patient-derived pancreatic carcinoma cell line growth inhibition [Asc]. The conditions noted are these: for viability, T/C: stronger effect = lower value. Summed up:
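Concentration series start at each agent's clinical Cmax, or at 10 microM when none is established, and drop in half-log steps; agents are applied alone or together to complex spheroids built with HUVEC and hMSC.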

Where [1] appears, read: curve of first compound, second compound 0.03 µM.
Where [2] appears, read: curve of first compound, second compound 0.0949 µM.
Where [3] appears, read: curve of first compound, second compound 0.3 µM.
The mark [4] stands for this setting: curve of first compound, second compound 0.949 µM.
Where [5] appears, read: curve of first compound, second compound 3 µM.
Where [6] appears, read: second compound 0.03 µM, first compound 0.00316 µM.
The mark [7] stands for this setting: second compound 0.03 µM, first compound 0.01 µM.
Where [8] appears, read: second compound 0.03 µM, first compound 0.0316 µM.
[9] abbreviates: second compound 0.03 µM, first compound 0.1 µM.
The mark [10] stands for this setting: second compound 0.0949 µM, first compound 0.00316 µM.
The mark [11] stands for this setting: second compound 0.0949 µM, first compound 0.01 µM.
Where [12] appears, read: second compound 0.0949 µM, first compound 0.0316 µM.
Where [13] appears, read: second compound 0.0949 µM, first compound 0.1 µM.
The mark [14] stands for this setting: second compound 0.3 µM, first compound 0.00316 µM.
Setting [15] is: second compound 0.3 µM, first compound 0.01 µM.
Setting [16] is: second compound 0.3 µM, first compound 0.0316 µM.
Where [17] appears, read: second compound 0.3 µM, first compound 0.1 µM.
Where [18] appears, read: second compound 0.949 µM, first compound 0.00316 µM.
Where [19] appears, read: second compound 0.949 µM, first compound 0.01 µM.
Where [20] appears, read: second compound 0.949 µM, first compound 0.0316 µM.
[21] abbreviates: second compound 0.949 µM, first compound 0.1 µM.
[22] abbreviates: second compound 3 µM, first compound 0.00316 µM.
Setting [23] is: second compound 3 µM, first compound 0.01 µM.
Where [24] appears, read: second compound 3 µM, first compound 0.0316 µM.
The mark [25] stands for this setting: second compound 3 µM, first compound 0.1 µM.

Values joined by “and” are separate entries in the source; they are usually repeats but may differ in a detail not shown here. Equal entries are not always repeated. A value given as a limit tells only on which side of the number the result lay.
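Further: spheroids exposed to agents for 7 days before readout.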
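Wherever viability, T/C is given: 100% = DMSO vehicle control viability.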

By IC50 is commonly meant the concentration that inhibits the measured activity by half. Usually viability, T/C stands for the ratio of treated to control. For `CNC(C)C(=O)NC1CN(S(=O)(=O)c2cccc(S(=O)(=O)N3CCC4CCC(C(=O)NC(c5ccccc5)c5ccccc5)N4C(=O)C(NC(=O)C(C)NC)C3)c2)CCC2CCC(C(=O)NC(c3ccccc3)c3ccccc3)N2C1=O` (centres undefined) + CCN1C(C(=O)NC23CCC(C(=O)O)(CC2)CC3)C(c2cccc(Cl)c2F)C2(C(=O)Nc3cc(Cl)ccc32)C12CCCCC2, the IC50 reads like this: under setting [1], above 1000 nM; under setting [2], above 1000 nM; under setting [3], above 1000 nM; under setting [4], above 1000 nM; under setting [5], above 1000 nM. The viability, T/C runs as follows: under setting [6], 141%; under setting [7], 76.6%; under setting [8], 86.4%; under setting [9], 65.2%; (second compound 0.03 µM, first compound 0.316 µM) 66%; (second compound 0.03 µM, first compound 1 µM) 76%. Further, the viability, T/C runs as follows: under setting [10], 111%; under setting [11], 95.8%; under setting [12], 90.7%; under setting [13], 101%; (second compound 0.0949 µM, first compound 0.316 µM) 105%; (second compound 0.0949 µM, first compound 1 µM) 115%. Also, the viability, T/C was 120% under setting [14]; 133% under setting [15]; 84.3% under setting [16]; 97.6% under setting [17]; 94% (second compound 0.3 µM, first compound 0.316 µM); 102% (second compound 0.3 µM, first compound 1 µM). The viability, T/C runs as follows: under setting [18], 87.8%; under setting [19], 102%; under setting [20], 158%; under setting [21], 116%; (second compound 0.949 µM, first compound 0.316 µM) 84.2%; (second compound 0.949 µM, first compound 1 µM) 106%. In addition, the viability, T/C under setting [22] was 166%; the viability, T/C under setting [23] is 102%; the viability, T/C under setting [24] was 141%; the viability, T/C under setting [25] was 120%; the viability, T/C (second compound 3 µM, first compound 0.316 µM) is 151%; the viability, T/C (second compound 3 µM, first compound 1 µM) is 123%.

Turning to `Cn1ncnc1[C@H]1c2n[nH]c(=O)c3cc(F)cc(c23)N[C@@H]1c1ccc(F)cc1`, the viability, T/C runs as follows: (compound 0.000316 µM) 106% and 99.6% and 79.6%; (compound 0.001 µM) 81.4% and 87.9% and 79.3%; (compound 0.00316 µM) 68.4% and 93.3% and 73.6%; (compound 0.01 µM) 76.5% and 83.7% and 68.9%; (compound 0.0316 µM) 81.5% and 76.8% and 63.5%; (compound 0.1 µM) 57.7% and 68.6% and 70.2%. Also, the IC50 (curve of compound) was above 100 nM.

Turning to `C#Cc1c(F)ccc2cc(O)cc(-c3ncc4c(N5CC6CCC(C5)N6)nc(OCC56CCCN5CC(F)C6)nc4c3F)c12` (centres undefined) + CNC(C)C(=O)NC1CN(S(=O)(=O)c2cccc(S(=O)(=O)N3CCC4CCC(C(=O)NC(c5ccccc5)c5ccccc5)N4C(=O)C(NC(=O)C(C)NC)C3)c2)CCC2CCC(C(=O)NC(c3ccccc3)c3ccccc3)N2C1=O, the IC50 (curve of first compound, second compound 0.01 µM) is below 31.6 nM; the IC50 (curve of first compound, second compound 0.0316 µM) was below 31.6 nM; the IC50 (curve of first compound, second compound 0.1 µM) is below 31.6 nM; the IC50 (curve of first compound, second compound 0.316 µM) was below 31.6 nM; the IC50 (curve of first compound, second compound 1 µM) is below 31.6 nM. Further, the viability, T/C (second compound 0.01 µM, first compound 0.0316 µM) is 22.8%; the viability, T/C (second compound 0.01 µM, first compound 0.1 µM) was 22.5%; the viability, T/C (second compound 0.01 µM, first compound 0.316 µM) was 20.6%; the viability, T/C (second compound 0.01 µM, first compound 1 µM) was 16.3%; the viability, T/C (second compound 0.01 µM, first compound 3.16 µM) is 19.2%; the viability, T/C (second compound 0.01 µM, first compound 10 µM) was 18.2%. Also, the viability, T/C by setting is: (second compound 0.0316 µM, first compound 0.0316 µM) 20.3%; (second compound 0.0316 µM, first compound 0.1 µM) 25.8%; (second compound 0.0316 µM, first compound 0.316 µM) 19.4%; (second compound 0.0316 µM, first compound 1 µM) 13.4%; (second compound 0.0316 µM, first compound 3.16 µM) 17.7%; (second compound 0.0316 µM, first compound 10 µM) 19.9%. The viability, T/C reads like this: (second compound 0.1 µM, first compound 0.0316 µM) 22.1%; (second compound 0.1 µM, first compound 0.1 µM) 16.6%; (second compound 0.1 µM, first compound 0.316 µM) 21.6%; (second compound 0.1 µM, first compound 1 µM) 15.7%; (second compound 0.1 µM, first compound 3.16 µM) 18.3%; (second compound 0.1 µM, first compound 10 µM) 17%. Moreover, the viability, T/C was 20.8% (second compound 0.316 µM, first compound 0.0316 µM); 17.1% (second compound 0.316 µM, first compound 0.1 µM); 18.1% (second compound 0.316 µM, first compound 0.316 µM); 22.8% (second compound 0.316 µM, first compound 1 µM); 17.3% (second compound 0.316 µM, first compound 3.16 µM); 13.9% (second compound 0.316 µM, first compound 10 µM). Moreover, the viability, T/C is, setting by setting: (second compound 1 µM, first compound 0.0316 µM) 21.6%; (second compound 1 µM, first compound 0.1 µM) 18.7%; (second compound 1 µM, first compound 0.316 µM) 27.5%; (second compound 1 µM, first compound 1 µM) 26.6%; (second compound 1 µM, first compound 3.16 µM) 19.7%; (second compound 1 µM, first compound 10 µM) 16.8%.

`C=C(F)C(=O)N1CCN(c2nc(OCC3CCCN3C)nc3c2CCN(c2cccc4cccc(Cl)c24)C3)CC1CC#N` (centres undefined): the viability, T/C (compound 0.0316 µM) was 68.6% and 77.1% and 84.2%; the viability, T/C (compound 0.1 µM) is 89% and 77.1% and 94.1%; the viability, T/C (compound 0.316 µM) was 78.8% and 86.1% and 107%; the viability, T/C (compound 1 µM) was 105% and 95.4% and 98.1%; the viability, T/C (compound 3.16 µM) is 115% and 136% and 120%; the viability, T/C (compound 10 µM) is 0.29% and 0.32% (2×). Further, where the note is “curve of compound”, the concentration for half-maximal inhibition (IC50) was 5330 nM and 5440 nM and 5660 nM.

For `Cn1ncnc1[C@H]1c2n[nH]c(=O)c3cc(F)cc(c23)N[C@@H]1c1ccc(F)cc1` + CCN1C(C(=O)NC23CCC(C(=O)O)(CC2)CC3)C(c2cccc(Cl)c2F)C2(C(=O)Nc3cc(Cl)ccc32)C12CCCCC2, the half-maximal inhibitory concentration (IC50) is, setting by setting: under setting [1], above 100 nM; under setting [2], above 100 nM; under setting [3], above 100 nM; under setting [4], above 100 nM; under setting [5], above 100 nM. In addition, the viability, T/C (second compound 0.03 µM, first compound 0.000316 µM) is 142%; the viability, T/C (second compound 0.03 µM, first compound 0.001 µM) is 56.8%; the viability, T/C under setting [6] was 100%; the viability, T/C under setting [7] was 57.9%; the viability, T/C under setting [8] is 76.7%; the viability, T/C under setting [9] was 55.6%. Moreover, the viability, T/C (second compound 0.0949 µM, first compound 0.000316 µM) is 104%; the viability, T/C (second compound 0.0949 µM, first compound 0.001 µM) is 77.5%; the viability, T/C under setting [10] is 90.5%; the viability, T/C under setting [11] is 71.7%; the viability, T/C under setting [12] is 66.6%; the viability, T/C under setting [13] was 49.4%. The viability, T/C is 90.6% (second compound 0.3 µM, first compound 0.000316 µM); 100% (second compound 0.3 µM, first compound 0.001 µM); 101% under setting [14]; 110% under setting [15]; 78% under setting [16]; 67.8% under setting [17]. The viability, T/C (second compound 0.949 µM, first compound 0.000316 µM) is 116%; the viability, T/C (second compound 0.949 µM, first compound 0.001 µM) was 135%; the viability, T/C under setting [18] is 107%; the viability, T/C under setting [19] is 98.9%; the viability, T/C under setting [20] was 94.2%; the viability, T/C under setting [21] was 73%. In addition, the viability, T/C runs as follows: (second compound 3 µM, first compound 0.000316 µM) 146%; (second compound 3 µM, first compound 0.001 µM) 116%; under setting [22], 122%; under setting [23], 130%; under setting [24], 122%; under setting [25], 86.6%.

Source of the values: PubChem BioAssay AID1963430 (Molecular Pharmacology Branch, DTP, NCI, 2024).
